In patent US10188106B2 (priority 2008, dated 2019):
Counter-ions that a name gives are not always drawn. Like-named read-outs stand apart in the source and are kept apart here.

How the values were obtained:
Assay type in all cases: in vivo
Alternaria solani = assay: Alternaria test (tomatoes)/protective; conditions: tomato plants, protective spray, evaluated 3 days after inoculation; for pest or weed control at 50 ppm: rate of application 50 ppm; for pest or weed control at 25 ppm: rate of application 25 ppm
Protocol: (§1) Solvent: 24.5 parts by weight of acetone
(§2) • 24.5 parts by weight of dimethylacetamide Emulsifier: 1 part by weight of alkylaryl polyglycol ether
(§3) To produce a suitable preparation of active compound, 1 part by weight of active compound is mixed with the stated amounts of solvent and emulsifier, and the concentrate is diluted with water to the desired concentration.
(§4) To test for protective activity, young plants are sprayed with the preparation of active compound at the stated rate of application. After the spray coating has dried on, the plants are inoculated with an aqueous spore suspension of Alternaria solani. The plants are then placed in an incubation cabinet at approximately 20° C. and a relative atmospheric humidity of 100%.
The test is evaluated 3 days after the inoculation. 0% means an efficacy which corresponds to that of the control while an efficacy of 100% means that no disease is observed.

Botrytis cinerea = assay: Botrytis test (beans)/protective; conditions: bean plants, protective spray, lesion size 2 days after inoculation
Protocol: as §1, §2, §3
To test for protective activity, young plants are sprayed with the preparation of active compound. After the spray coating has dried on, 2 small pieces of agar covered with growth of Botrytis cinerea are placed on each leaf. The inoculated plants are placed in a darkened chamber at 20° C. and a relative atmospheric humidity of 100%.
2 days after the inoculation, the size of the lesions on the leaves is evaluated. 0% means an efficacy which corresponds to that of the control, while an efficacy of 100% means that no disease is observed.

Phytophthora infestans = conditions: tomato plants, protective spray, evaluated 3 days after inoculation
Venturia inaequalis = assay: Venturia test (apples)/protective; conditions: apple plants, protective spray, rate of application 100 ppm, evaluated 10 days after inoculation
Protocol: as §1, §2, §3
as §4, with “conidia” for “spore”, “the causal agent of apple scab (Venturia inaequalis) and” for “Alternaria solani. The plants are”, “remain for 1 day” for “placed”
The plants are then placed in a greenhouse at approximately 21° C. and a relative atmospheric humidity of approximately 90%.
The test is evaluated 10 days after the inoculation. 0% means an efficacy which corresponds to that of the control, while an efficacy of 100% means that no disease is observed.

[1] = Alternaria solani, 72 h, read-out: Efficacy in %
[2] = Alternaria solani, 72 h, rate of application 10 ppm, read-out: Efficacy in %

For `Cc1nn(C)c(F)c1C(=O)Nc1ccccc1C(C)CC(C)C` (stereo not drawn) [N-[2-(1,3-dimethylbutyl)phenyl]-5-fluoro-1,3-dimethyl-1H-pyrazole-4-carboxamide], the pest or weed control at 1 ppm (Alternaria solani; Alternaria solani, 72 h, rate of application 1 ppm, read-out: Efficacy in %) was 18%.

With `CO/C=C(/C(=O)OC)c1ccccc1Oc1cc(Oc2ccccc2C#N)ncn1` [azoxystrobin] the Efficacy in % (Alternaria solani; rate of application 10 ppm) was 15%.

With `Cn1cc(C(=O)Nc2ccc(F)cc2-c2ccc(Cl)c(Cl)c2)c(C(F)F)n1` [bixafen, N-(3′,4′-dichloro-5-fluorobiphenyl-2-yl)-3-(difluoromethyl)-1-methyl-1H-pyrazole-4-carboxamide] the pest or weed control at 1.25 ppm (Alternaria solani; Alternaria solani, 72 h, rate of application 1.25 ppm, read-out: Efficacy in %) was 65%.

For `O=C(Nc1ccccc1-c1ccc(Cl)cc1)c1cccnc1Cl` [boscalid], the Efficacy in % (Botrytis cinerea; rate of application 5 ppm) was 21%.

Work on `N#Cc1c(Cl)c(Cl)c(Cl)c(C#N)c1Cl` [chlorothalonil] yielded an Efficacy in % (Phytophthora infestans; rate of application 25 ppm) of 44% and a pest or weed control at 50 ppm (Alternaria solani; [1]) of 71%.

Molecule `CN/C(=N\[N+](=O)[O-])NCc1cnc(Cl)s1` [clothianidin] has an Efficacy in % (Venturia inaequalis) of 66%.

Work on `CCNC(=O)NC(=O)/C(C#N)=N/OC` [cymoxanil] yielded an Efficacy in % (Venturia inaequalis) of 23% and a pest or weed control at 50 ppm (Alternaria solani; [1]) of 23%.

Work on `O=[N+]([O-])c1cc(C(F)(F)F)c(Cl)c([N+](=O)[O-])c1Nc1ncc(C(F)(F)F)cc1Cl` [fluazinam] yielded an Efficacy in % (Botrytis cinerea; rate of application 10 ppm) of 79%.

Work on `N#Cc1c[nH]cc1-c1cccc2c1OC(F)(F)O2` [fludioxonil] yielded an Efficacy in % (Botrytis cinerea; rate of application 5 ppm) of 45%.

`CO/N=C(/C1=NOCCO1)c1ccccc1Oc1ncnc(Oc2ccccc2Cl)c1F` [fluoxastrobin] gave a pest or weed control at 10 ppm (Alternaria solani; [2]) of 15%.

Work on `CCCCCOC(=O)Nc1cccc(CON=C(c2ccccc2)c2nnnn2C)n1` [formula 1, pentyl {6-[({[(1-methyl-1H-tetrazol-5-yl)(phenyl)methylidene]amino}oxy)methyl]pyridin-2-yl}carbamate] yielded an Efficacy in % (Phytophthora infestans; rate of application 0.25 ppm) of 47%, an Efficacy in % (Phytophthora infestans; rate of application 0.5 ppm) of 57% and an Efficacy in % (Phytophthora infestans; rate of application 1 ppm) of 77%. For the same molecule, the Efficacy in % (Venturia inaequalis) was 8%, the pest or weed control at 5 ppm (Alternaria solani; Alternaria solani, 72 h, rate of application 5 ppm, read-out: Efficacy in %) was 0% and the pest or weed control at 10 ppm (Alternaria solani; [2]) was 0%. It also gave a pest or weed control at 25 ppm (Alternaria solani; [1]) of 0%, a pest or weed control at 50 ppm (Alternaria solani; [1]) of 8% and a pest or weed control at 100 ppm (Alternaria solani; Alternaria solani, 72 h, rate of application 100 ppm, read-out: Efficacy in %) of 0%. For the same molecule, the Efficacy in % (Botrytis cinerea; rate of application 50 ppm) was 4% and the Efficacy in % (Botrytis cinerea; rate of application 100 ppm) was 4%.

`CCO[PH](=O)O` [fosetyl-Al] gave an Efficacy in % (Phytophthora infestans; rate of application 10 ppm) of 0%.

For `O=[N+]([O-])NC1=NCCN1Cc1ccc(Cl)nc1` [imidacloprid], the Efficacy in % (Venturia inaequalis) was 4% and the pest or weed control at 25 ppm (Alternaria solani; [1]) was 0%.

With `CC(C)NC(=O)N1CC(=O)N(c2cc(Cl)cc(Cl)c2)C1=O` [iprodione] the Efficacy in % (Botrytis cinerea; rate of application 100 ppm) was 66%.

Molecule `Cc1ccc(C(C)NC(=O)[C@@H](NC(=O)OC(C)C)C(C)C)cc1` (stereo partly drawn) [iprovalicarb] has an Efficacy in % (Phytophthora infestans; rate of application 1 ppm) of 16%.

`CCCOC(=O)NCCCN(C)C` [propamocarb-HCl] was tested, and the Efficacy in % (Venturia inaequalis) was 4% and the pest or weed control at 50 ppm (Alternaria solani; [1]) was 38%.

In the case of `OC(Cc1ccccc1Cl)(Cn1nc[nH]c1=S)C1(Cl)CC1` (stereo not drawn) [prothioconazole], the pest or weed control at 2.5 ppm (Alternaria solani; Alternaria solani, 72 h, rate of application 2.5 ppm, read-out: Efficacy in %) is reported as 23%.

With `COC(=O)N(OC)c1ccccc1COc1ccn(-c2ccc(Cl)cc2)n1` [pyraclostrobin] the pest or weed control at 10 ppm (Alternaria solani; [2]) was 45%.

`CC(C)(C)C(O)(CCc1ccc(Cl)cc1)Cn1cncn1` (stereo not drawn) [tebuconazole] was tested, and the pest or weed control at 10 ppm (Alternaria solani; [2]) was 55%.

For `CON=C(C(=O)OC)c1ccccc1CON=C(C)c1cccc(C(F)(F)F)c1` [trifloxystrobin], the pest or weed control at 10 ppm (Alternaria solani; [2]) was 35%.

mancozeb gave an Efficacy in % (Phytophthora infestans; rate of application 10 ppm) of 0%.

For propineb [Ppopineb], the Efficacy in % (Phytophthora infestans; rate of application 10 ppm) was 0%.
